± gives the standard deviation of the averaged measurements.
Assays:
Test in all cases: cell viability, percent of DMSO control (CellTiter-Glo); higher = more viable cells
Details in all cases: 72 h
[1] = tested on: DFTD cell line T3 (06/0368)
Method: (§1)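 Eight-point dose titration of 41 screen hits in triplicate wells on four Tasmanian devil DFTD tumour cell lines (T1-T4) and devil fibroblasts, 384-well plates. Viability was read by CellTiter-Glo (ATP) after 72 h at 37 °C. Percent of control per plate: DMSO wells = 100%, positive-control wells = 0%.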

[2] = tested on: DFTD cell line T1 (06/2887)
Method: as §1

[3] = tested on: DFTD cell line T4 (07/0192)
Method: as §1

[4] = tested on: DFTD cell line T2 (05/2569)
Method: as §1

| SMILES | cell viability ([1]; 0.00617 µM) [%] | cell viability ([1]; 0.0185 µM) [%] | cell viability ([1]; 0.0556 µM) [%] | cell viability ([1]; 0.166667 µM) [%] | cell viability ([1]; 0.5 µM) [%] | cell viability ([1]; 1.5 µM) [%] | cell viability ([1]; 4.5 µM) [%] | cell viability ([1]; 13.5 µM) [%] | cell viability ([2]; 0.00617 µM) [%] | cell viability ([2]; 0.0185 µM) [%] | cell viability ([2]; 0.0556 µM) [%] | cell viability ([2]; 0.166667 µM) [%] | cell viability ([2]; 0.5 µM) [%] | cell viability ([2]; 1.5 µM) [%] | cell viability ([2]; 4.5 µM) [%] | cell viability ([2]; 13.5 µM) [%] | cell viability ([3]; 0.00617 µM) [%] | cell viability ([3]; 0.0185 µM) [%] | cell viability ([3]; 0.0556 µM) [%] | cell viability ([3]; 0.166667 µM) [%] | cell viability ([3]; 0.5 µM) [%] | cell viability ([3]; 1.5 µM) [%] | cell viability ([3]; 4.5 µM) [%] | cell viability ([3]; 13.5 µM) [%] | cell viability ([4]; 0.00617 µM) [%] | cell viability ([4]; 0.0185 µM) [%] | cell viability ([4]; 0.0556 µM) [%] | cell viability ([4]; 0.166667 µM) [%] | cell viability ([4]; 0.5 µM) [%] | cell viability ([4]; 1.5 µM) [%] | cell viability ([4]; 4.5 µM) [%] | cell viability ([4]; 13.5 µM) [%] |
| --- | --- | --- | --- | --- | --- | --- | --- | --- | --- | --- | --- | --- | --- | --- | --- | --- | --- | --- | --- | --- | --- | --- | --- | --- | --- | --- | --- | --- | --- | --- | --- | --- |
| CC#CC(=O)Nc1ccc2ncnc(Nc3cccc(Br)c3)c2c1 | 95.8 ± 5.2 | 105 ± 20 | 108 ± 30 | 76.6 ± 10 | 65.5 ± 12 | 38.7 ± 7 | 28.4 ± 4.2 | 18.3 ± 9.3 | 94 ± 1.7 | 95.5 ± 10 | 79.5 ± 27 | 63.3 ± 5.6 | 40.9 ± 1.1 | 21.1 ± 9.7 | 14.8 ± 1.1 | 12.3 ± 6.3 | 81.6 ± 19 | 98.5 ± 10 | 106 ± 20 | 73.9 ± 11 | 50.7 ± 1.8 | 22.7 ± 13 | 13.5 ± 5.1 | 4.04 ± 10 | 99.6 ± 5.3 | 85 ± 13 | 101 ± 18 | 84 ± 5.7 | 84.5 ± 1 | 44.6 ± 5.5 | 30.3 ± 8.2 | 33.4 ± 7.6 |
| COc1cc2ncnc(Nc3ccc(Cl)cc3F)c2cc1OC | 120 ± 13 | 89.3 ± 13 | 119 ± 19 | 97.1 ± 20 | 85.5 ± 8.9 | 66.1 ± 8.5 | 43.7 ± 8.6 | 47.2 ± 1.9 | 98.4 ± 38 | 95.7 ± 3.3 | 124 ± 36 | 110 ± 31 | 83.1 ± 28 | 44.3 ± 8.7 | 26.7 ± 7.2 | 36.9 ± 1.4 | 116 ± 7.2 | 99.5 ± 7.3 | 119 ± 36 | 97 ± 12 | 93.8 ± 12 | 75.3 ± 13 | 45 ± 6.2 | 35.2 ± 3.8 | 105 ± 20 | 86.8 ± 13 | 112 ± 22 | 116 ± 35 | 85.2 ± 24 | 59.5 ± 9.7 | 27.6 ± 4.8 | 28.3 ± 5 |
| COc1cc2ncnc(Nc3cccc(Br)c3)c2cc1OC.Cl | 127 ± 22 | 90.2 ± 19 | 118 ± 9.9 | 108 ± 7.1 | 89.1 ± 20 | 49 ± 2.4 | 39.8 ± 1.5 | 30.8 ± 7.7 | 126 ± 20 | 99 ± 21 | 112 ± 21 | 111 ± 19 | 63 ± 27 | 24.8 ± 4.3 | 22.8 ± 4.8 | 12.4 ± 4 | 126 ± 14 | 94 ± 30 | 105 ± 1.4 | 104 ± 9.2 | 91 ± 33 | 48.8 ± 3.7 | 28.6 ± 4.1 | 17.7 ± 5.7 | 115 ± 13 | 106 ± 32 | 106 ± 25 | 107 ± 11 | 77 ± 26 | 40.7 ± 2.4 | 32.9 ± 7.8 | 21.2 ± 5.5 |
| COc1cccc2c1C(=O)c1c(O)c3c(c(O)c1C2=O)C[C@@](O)(C(=O)CO)C[C@@H]3O[C@H]1C[C@H](N)[C@@H](O)[C@H](C)O1.Cl | 124 ± 11 | 110 ± 44 | 96.2 ± 12 | 81.9 ± 18 | 63.8 ± 6.6 | 19.3 ± 3.4 | 5.78 ± 4.9 | -4.2 ± 4.2 | 127 ± 20 | 96.8 ± 35 | 94.5 ± 5 | 66.7 ± 14 | 60.6 ± 6.7 | -2.32 ± 3.8 | -3.85 ± 4.9 | -11.8 ± 0.8 | 118 ± 30 | 97.7 ± 28 | 89.8 ± 12 | 67.5 ± 13 | 57.2 ± 10 | -4.01 ± 4.5 | -5.27 ± 1.6 | -4.94 ± 4.3 | 116 ± 3.2 | 105 ± 38 | 107 ± 8.6 | 79.4 ± 6.3 | 68.9 ± 3.2 | 22.8 ± 5 | -4.77 ± 4 | -10.2 ± 3.1 |
| COc1cccc2c1C(=O)c1c(O)c3c(c(O)c1C2=O)C[C@@](O)(C(=O)CO)C[C@@H]3O[C@H]1C[C@H](N)[C@H](O)[C@H](C)O1.Cl | 101 ± 18 | 102 ± 5.6 | 97.9 ± 17 | 95.8 ± 19 | 60.3 ± 11 | 45 ± 4.4 | 1.01 ± 0.94 | 2.64 ± 8.3 | 106 ± 19 | 112 ± 28 | 94.2 ± 8.7 | 95.5 ± 18 | 61.2 ± 8.2 | 32.2 ± 2.5 | 1.1 ± 6.5 | -3.65 ± 5 | 110 ± 16 | 98 ± 4.9 | 89.9 ± 30 | 91.9 ± 4.3 | 43.8 ± 15 | 24.2 ± 7 | -1.02 ± 1.8 | 1.84 ± 5.4 | 118 ± 33 | 107 ± 14 | 90.9 ± 19 | 97.9 ± 18 | 60.3 ± 14 | 33.7 ± 8.7 | -0.292 ± 4.4 | -2.07 ± 4.8 |
| COc1cc2ncnc(Nc3ccc(F)c(Cl)c3)c2cc1NC(=O)/C=C/CN1CCCCC1 | 108 ± 16 | 97.5 ± 14 | 91.6 ± 18 | 77.7 ± 1.5 | 39.7 ± 5.3 | 38.3 ± 3.5 | 27.9 ± 7 | -10.9 ± 5.5 | 97.4 ± 26 | 108 ± 39 | 94.3 ± 19 | 58.2 ± 6.1 | 36.2 ± 4 | 27.5 ± 6.9 | 30.8 ± 20 | 19.8 ± 14 | 107 ± 7.5 | 96.2 ± 33 | 88 ± 13 | 77.2 ± 1.9 | 25 ± 6.3 | 26.5 ± 3.8 | 11.7 ± 14 | -11.1 ± 6 | 112 ± 30 | 95.2 ± 46 | 106 ± 12 | 90.6 ± 2.5 | 81.1 ± 22 | 51 ± 8.7 | 49.8 ± 13 | 50.5 ± 13 |
| CS(=O)(=O)CCNCc1ccc(-c2ccc3ncnc(Nc4ccc(OCc5cccc(F)c5)c(Cl)c4)c3c2)o1.Cc1ccc(S(=O)(=O)O)cc1 | 96 ± 14 | 105 ± 4.2 | 99.2 ± 22 | 97.4 ± 13 | 63 ± 14 | 54.1 ± 6 | 42.2 ± 2.4 | 40.8 ± 22 | 127 ± 30 | 119 ± 34 | 87.5 ± 10 | 102 ± 13 | 46.3 ± 14 | 28.1 ± 1.4 | 24 ± 4.6 | 31.8 ± 14 | 102 ± 3.8 | 123 ± 22 | 101 ± 20 | 91.8 ± 9.4 | 62.7 ± 8.4 | 46.1 ± 8 | 22.1 ± 4.5 | 28.7 ± 14 | 109 ± 37 | 114 ± 20 | 98.2 ± 27 | 117 ± 23 | 83.3 ± 12 | 44.3 ± 7.7 | 35.8 ± 6.4 | 32.3 ± 14 |

— the supplement of paper PMC6335503
